Legend:
Human Sirt2_56–356 = target: T1, Human Sirt2_56–356 (Homo sapiens, UniProt Q8IXJ6); test: competition analyses / inhibition kinetics, α-tubulin peptide, HPLC; assay type: biochemical; settings: NAD+ competition analysis
T1 construct: Human Sirt2_56–356 (0.2 mg ml^−1 final concentration); His10 (N, cleaved yes); made in house; host or cells: E. coli BL21(DE3)Codonplus RIPL
T1 sequence (Q8IXJ6 56-356): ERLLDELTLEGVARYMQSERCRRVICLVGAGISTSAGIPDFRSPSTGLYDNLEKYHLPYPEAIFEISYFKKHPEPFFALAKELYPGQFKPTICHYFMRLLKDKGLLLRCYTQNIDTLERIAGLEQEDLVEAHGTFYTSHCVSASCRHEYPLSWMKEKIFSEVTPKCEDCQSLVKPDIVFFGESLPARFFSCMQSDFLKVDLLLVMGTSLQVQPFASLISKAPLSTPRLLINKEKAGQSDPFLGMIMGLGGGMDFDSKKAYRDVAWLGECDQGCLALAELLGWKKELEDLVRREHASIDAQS
Description: The peak areas were integrated and converted to initial velocities calculated from the peak areas as the fraction of deacetylated peptide from total peptide.

human Sirt2 = target: T2, human Sirt2 (Homo sapiens, UniProt Q8IXJ6); test: HPLC-based conversion assay, non-labelled acetyl-lysine α-tubulin peptide; settings: SirReal2 100 μM, non-labelled acetyl-lysine oligopeptide
T2 sequence (Q8IXJ6 25-389): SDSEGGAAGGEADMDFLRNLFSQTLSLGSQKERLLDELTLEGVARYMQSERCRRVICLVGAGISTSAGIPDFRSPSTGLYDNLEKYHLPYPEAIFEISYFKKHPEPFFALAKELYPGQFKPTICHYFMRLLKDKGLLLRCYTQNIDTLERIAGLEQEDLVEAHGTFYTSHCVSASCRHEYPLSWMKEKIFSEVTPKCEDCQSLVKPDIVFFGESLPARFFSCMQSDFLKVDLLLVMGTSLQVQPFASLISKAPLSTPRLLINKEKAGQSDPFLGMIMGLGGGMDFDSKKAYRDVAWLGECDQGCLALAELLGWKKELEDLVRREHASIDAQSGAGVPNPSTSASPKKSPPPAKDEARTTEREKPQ

human Sirt3 = target: T3, human Sirt3 (Homo sapiens, UniProt Q9NTG7); test: as above; settings: 100 μM, acetyl-lysine substrate
T3 sequence (Q9NTG7 118-395): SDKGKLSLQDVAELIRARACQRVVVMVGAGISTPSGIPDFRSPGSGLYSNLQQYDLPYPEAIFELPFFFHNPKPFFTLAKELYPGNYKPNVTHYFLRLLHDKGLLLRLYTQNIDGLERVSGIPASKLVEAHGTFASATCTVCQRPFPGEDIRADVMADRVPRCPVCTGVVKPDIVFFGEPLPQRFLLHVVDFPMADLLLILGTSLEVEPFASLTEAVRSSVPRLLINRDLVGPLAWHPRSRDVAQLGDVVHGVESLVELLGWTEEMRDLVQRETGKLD

Cc1cc(C)nc(SCC(=O)Nc2ncc(Cc3cccc4ccccc34)s2)n1 [SirReal2]
mode of inhibition towards NAD+ (Human Sirt2_56–356): partially non-competitive | activity of Sirt2 (human Sirt2): substantially reduced | effect on activity of Sirt3 (human Sirt3): very little effect

From PMC4339887, “Selective Sirt2 inhibition by ligand-induced rearrangement of the active site” (Nature Communications, 2015)
